# Results published in patent US7666901B2, “Analogs of 17-hydroxywortmannin as PI3K inhibitors” (Wyeth, priority 2004, dated 2010).
# Experiments:
# [1] = test system: LNCaP (human prostate carcinoma); assay: Cell proliferation (MTS) assay, LNCaP; type: cell-based; details: Homo sapiens, LNCaP, 72 h, Table 1; three days treatment
# Description: (§1) Results of cell proliferation assays for exemplary compounds are shown below in Tables 1 and 2. Cell lines LNCaP (human prostate carcinoma), MDA468 (human breast cancer cell), MDA435 (human breast adenocarcinoma), and DU145 (human prostate carcinoma[…]) were purchased from American Type Culture Collection (ATCC) (Rockville, Md.). Cells were cultured in RPMI Medium 1640 containing 10% fetal bovine serum (FBS) in a 37° C. incubator containing 5% CO2. All cell culture reagents were purchased from Gibco-BRL (Grand Island, N.Y.). Cells were plated in 96-well culture plates at about 3000 cells per well. One day following plating, compounds or vehicle controls (buffer only) were added to cells. Proliferation assays were performed three days post initiation of treatment.
# (§2) For a non-radioactive cell proliferation assay, viable cell densities are determined by measuring metabolic conversion (by viable cells) of the dye MTS tatrazolium dye, a cell proliferation assay known by one of skill in the art (MTS assay), a previously established cell proliferation assay. The assay is performed using an assay kit (Promega Corp., Madison, Wis.). The assay plates are incubated for 1-2 hours, and the results are read in a 96-well format plate reader by measuring absorbance at 490 nm. Effect of each compound is calculated as a percentage of control cell growth obtained from vehicle-treated cells grown in the same plate.
# [2] = test system: MDA468 (human breast cancer cell); assay: Cell proliferation (MTS) assay, MDA468; type: cell-based; details: Homo sapiens, 72 h, Table 1; three days treatment
# Description: as §1, §2
# [3] = test system: MDA435 (human breast adenocarcinoma); assay: Cell proliferation (MTS) assay, MDA435; type: cell-based; details: Homo sapiens, MDA435, 72 h, Table 1; three days treatment
# Description: as §1, §2
# [4] = test system: DU145 (human prostate carcinoma/lymphocytic leukemia); assay: Cell proliferation (MTS) assay, DU145; type: cell-based; details: Homo sapiens, DU-145, 72 h, Table 1; three days treatment
# Description: as §1, §2
# Human TOR = target: T1, Human TOR (Homo sapiens, UniProt P42345); assay: Human TOR (mTOR) kinase assay, DELFIA format; type: biochemical; details: Table 1
# T1 construct: FLAG
# Description: The PI3K/AKT/TOR pathway is critical for cell proliferation, growth, survival, and angiogensis. Accordingly, compounds of the present invention may also be useful to inhibit TOR activity. Similar in vivo and in vitro assays to those described above with reference to PI3K can be used to determine the minimum concentration of compound sufficient to inhibit TOR. A human TOR assay and a Rat1-IGF1 assay as described in Examples 67 and 68, respectively was performed with some embodiments of the invention. The results of these assays are shown below in Tables 1 and 2.
# Human TOR assays (See Toral-Barza, et al. Biochem Biophys. Res. Commun. 2005 Jun. 24; 332(1):304-10) with purified enzyme are performed in 96-well plates by DELFIA format as follows. Enzymes are first diluted in kinase assay buffer (10 mM Hepes (pH 7.4), 50 mM NaCl, 50 mM b-glycerophosphate, 10 mM MnCl2, 0.5 mM DTT, 0.25 mM microcystin LR, and […] BSA). To each well, 12 mL of the diluted enzyme is mixed briefly with 0.5 mL test inhibitor or control vehicle dimethylsulfoxide (DMSO). The kinase reaction is initiated by adding 12.5 mL kinase assay buffer containing ATP and His6-S6K to give a final reaction volume of 25 mL containing 800 ng/mL FLAG-TOR, […] ATP and […] His6-S6K. The reaction plate is incubated for 2 hours (linear at 1-6 hours) at room temperature with gentle shaking and then terminated by adding 25 mL Stop buffer (20 mM Hepes (pH 7.4), 20 mM EDTA, 20 mM EGTA). The DELFIA detection of the phosphorylated (Thr-389) His6-S6K is performed at room temperature using a monoclonal anti-P(T389)-p70S6K antibody (1A5, Cell Signaling) labeled with Europium-N1-ITC (Eu) (10.4 Eu per antibody, PerkinElmer). The DELFIA Assay buffer and Enhancement solution can be purchased from PerkinElmer. 45 mL of the terminated kinase reaction mixture is transferred to a MaxiSorp plate (Nunc) containing 55 mL PBS. The His6-S6K is allowed to attach for 2 hours after which the wells are aspirated and washed once with PBS. 100 mL of DELFIA Assay buffer with 40 ng/mL Eu-P(T389)-S6K antibody is added. The antibody binding is continued for 1 hour with gentle agitation. The wells are then aspirated and washed 4 times with PBS containing 0.05% Tween-20 (PBST). […] of DELFIA Enhancement solution is added to each well and the plates are read in a PerkinElmer Victor model plate reader. Data obtained is used to calculate enzymatic activity and enzyme inhibition by potential inhibitors.
# PI3K = test system: T2, PI3K; assay: Fluorescence polarization assay for PI3K; type: biochemical; details: Table 1
# T2 construct: PI3K FP IC50
# Description: This assay is used to determine the IC50 of compounds of the present invention as it identifies inhibitors of PI3 kinase by measuring inhibition.
# The assay is run by placing 5 μL of diluted enzyme per well, then 5 μL of diluted compound (or 9.5 μL enzyme then 0.5 μL compound in DMSO) is added and mixed. Then, 10 μL substrate is added to start the reaction. The samples are incubated 30-60 minutes, then the reaction is stopped by adding 20 μL stop/detector mix.
# PI3K is diluted with reaction buffer (e.g., 5 μL or 7.5 μL PI3K into 620 μL reaction buffer), and 5 μL of diluted enzyme is used per well. 5 μL reaction buffer or drug diluted in buffer (e.g., 4 μL/100 so final DMSO is 1% in reaction) is added to each. The samples are mixed by pipetting up and down. Alternatively, the enzyme can be diluted to 1215 μL. In this case 9.8 μL is added per well and 0.2 μL compound is added in DMSO.
# To prepare 1 mL of substrate solution, 955 μL reaction buffer, 40 μL PIP2, and 2.5 μL ATP are mixed. 10 μL of substrate is added to each well to start the reaction.
# Stop/detector mix is prepared by mixing 4 μL Red detector and 1.6 μL or 2.0 μL GST-GRP with 1 mL Stop buffer, which results in 10 nM probe and 70 nM GST-GRP). 20 μL of the stop/detector mix is added to each well to stop the reaction. The plates are read after 30-90 minutes keeping the red probe solutions dark.
# For the zero time point, stop/detector mix is added to the enzyme just before adding substrate. For an extra control, stop/detector mix is added to buffer (no enzyme) and substrate or to just buffer (no substrate).
# The recommended reaction has 0.06 μL per 20 μL (0.015 μg/20 μL) or 0.01125 μg/15 μL or 0.75 μg/mL.
# Plates are read on machines with filters for Tamra. The units are mP with no enzyme controls reading app 190-220 mP units. Fully active enzyme reduces fluorescence polarization down to 70-100 mP after 30 minutes. An active cpd raises the mP values halfway to control or to 120-150 mP units.
Compound,IC50 [1],IC50 [2],IC50 [3],IC50 [4],IC50 (Human TOR),PI3K FP IC50 (PI3K),TOR IC50 (Human TOR)
"CCN(/C=C1/C(=O)O[C@H](COC)[C@@]2(C)C1=C(O)C(=O)C1=C2[C@H](OC(C)=O)C[C@]2(C)[C@@H](O)CC[C@@H]12)CC [Compound 1, (1E,4S,4aR,5R,6aS,7S,9aR)-1-[(diethylamino)methylene]-7,11-dihydroxy-4-(methoxymethyl)-4a,6a-dimethyl-2,10-dioxo-1,2,4,4a,5,6,6a,7,8,9,9a,10-dodecahydroindeno[4,5-h]isochromen-5-yl acetate]",0.075 µg/mL,1 µg/mL,6 µg/mL,2 µg/mL,–,–,–
"COC[C@H]1OC(=O)/C(=C/N2CCCC2)C2=C(O)C(=O)C3=C([C@H](OC(C)=O)C[C@]4(C)[C@@H](O)CC[C@@H]34)[C@]21C [Compound 2, (1E,4S,4aR,5R,6aS,7S,9aR)-7,11-dihydroxy-4-(methoxymethyl)-4a,6a-dimethyl-2,10-dioxo-1-(Pyrrolidin-1-ylmethylene)-1,2,4,4a,5,6,6a,7,8,9,9a,10-dodecahydroindeno[4,5-h]isochromen-5-yl acetate]",0.1 µg/mL,1 µg/mL,6 µg/mL,1.4 µg/mL,> 19900 nM,–,–
"CCN(/C=C1/C(=O)O[C@H](COC)[C@@]2(C)C1=C(O)C(=O)C1=C2[C@H](OC(C)=O)C[C@@]2(C)C1CC[C@@H]2OC=O)CC (stereo partly drawn) [Compound 18, (1E,4S,4aR,5R,6aS,7S)-1-[(diethylamino)methylene]-7-(formyloxy)-11-hydroxy-4-(methoxymethyl)-4a,6a-dimethyl-2,10-dioxo-1,2,4,4a,5,6,6a,7,8,9,9a,10-dodecahydroindeno[4,5-h]isochromen-5-yl acetate]",0.11 µg/mL,0.4 µg/mL,6 µg/mL,1.5 µg/mL,4700 nM,–,–
"COCC1OC(=O)C(=CN(CCC#N)Cc2ccccc2)C2=C(O)C(=O)C3=C(C(OC(C)=O)CC4(C)C(O)CCC34)C21C (stereo not shown) [Compound 41, Acetic acid 4-{[benzyl-(2-cyano-ethyl)-amino]-methylene}-6,17-dihydroxy-1-methoxymethyl-10,13-dimethyl-3,7-dioxo-1,3,4,7,10,11,12,13,14,15,16,17-dodecahydro-2-oxa-cyclopenta[a]phenanthren-11-yl ester]",1.45 µg/mL,5 µg/mL,–,–,728 nM,0.028 µg/mL,–
"CCN(C=C1C(=O)OC(COC)C2(C)C1=C(O)C(=O)C1=C2C(OC(C)=O)CC2(C)C(O)CCC12)CCN(CC)CC (stereo not shown) [Compound 42, Acetic acid 4-{[(2-diethylamino-ethyl)-ethyl-amino]-methylene}-6,17-dihydroxy-1-methoxymethyl-10,13-dimethyl-3,7-dioxo-1,3,4,7,10,11,12,13,14,15,16,17-dodecahydro-2-oxa-cyclopenta[a]phenanthren-11-yl ester]",0.75 µg/mL,4.1 µg/mL,–,–,1480 nM,0.014 µg/mL,–
"COCC1OC(=O)C(=CN(CCN(C)C)Cc2ccccc2)C2=C(O)C(=O)C3=C(C(OC(C)=O)CC4(C)C(O)CCC34)C21C (stereo not shown) [Compound 43, Acetic acid 4-{[benzyl-(2-dimethylamino-ethyl)-amino]-methylene}-6,17-dihydroxy-1-methoxymethyl-10,13-dimethyl-3,7-dioxo-1,3,4,7,10,11,12,13,14,15,16,17-dodecahydro-2-oxa-cyclopenta[a]phenanthren-11-yl ester]",0.42 µg/mL,3.4 µg/mL,–,–,4600 nM,0.027 µg/mL,–
"CCC(=O)OC1CC2(C)C(O)CCC2C2=C1C1(C)C(=C(O)C2=O)C(=CN(C)CCN(C)C)C(=O)OC1COC (stereo not shown) [Compound 49, Propionic acid 4-{[(2-dimethylamino-ethyl)-methyl-amino]-methylene}-6,17-dihydroxy-1-methoxymethyl-10,13-dimethyl-3,7-dioxo-1,3,4,7,10,11,12,13,14,15,16,17-dodecahydro-2-oxa-cyclopenta[a]phenanthren-11-yl ester]",0.8 µg/mL,4.25 µg/mL,–,–,1520 nM,0.044 µg/mL,–
"CCCCSC=C1C(=O)OC(COC)C2(C)C1=C(O)C(=O)C1=C2C(OC(C)=O)CC2(C)C(O)CCC12 (stereo not shown) [Compound 52, Acetic acid 4-butylsulfanylmethylene-6,17-dihydroxy-1-methoxymethyl-10,13-dimethyl-3,7-dioxo-1,3,4,7,10,11,12,13,14,15,16,17-dodecahydro-2-oxa-cyclopenta[a]phenanthren-11-yl ester]",0.25 µg/mL,3.85 µg/mL,–,–,2500 nM,0.043 µg/mL,–
"CCCC(=O)OC1CC2(C)C(O)CCC2C2=C1C1(C)C(=C(O)C2=O)C(=CN(C)CC(C)N(C)C)C(=O)OC1COC (stereo not shown) [Compound 63, Butanoic acid 4-{[(2-dimethylamino-propyl)-methyl-amino]-methylene}-6,17-dihydroxy-1-methoxymethyl-10,13-dimethyl-3,7-dioxo-1,3,4,7,10,11,12,13,14,15,16,17-dodecahydro-2-oxa-cyclopenta[a]phenanthren-11-yl ester]",–,–,–,–,539 nM,–,–
"(1E,4S,4aR,5R,6aS,7S,9aR)-1-({4-[2-(2,5-dioxo-2,5-dihydro-1H-pyrrol-1-yl)ethyl]piperazin-1-yl}methylene)-7,11-dihydroxy-4-(methoxymethyl)-4a,6a-dimethyl-2,10-dioxo-1,2,4,4a,5,6,6a,7,8,9,9a,10-dodecahydroindeno[4,5-h]isochromen-5-yl acetate [Compound 65]",–,–,–,–,–,1.55 µg/mL,0.58 µg/mL
